Source: US10913727B2, “Modulators of the integrated stress pathway” (Calico Life Sciences LLC, priority 2016, dated 2021)

Tested on: HEK293T cells carrying the ATF4 luciferase reporter
Assay: ATF4-Luc assay, in vitro model of Vanishing Cell White Matter Disease (VWMD)
Format: cell-based
Conditions: Homo sapiens, HEK-293T, 1 μg/mL tunicamycin, 7 hours, One Glo luminescence
In short: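 Compound at 200 nM and tunicamycin at 1 μg/mL were given together for 7 h to HEK293T cells stably transduced with an ATF4 5′-UTR-driven firefly luciferase reporter. Read-out by luminescence, reported as EC50.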

| Compound | EC50 [nM] |
| --- | --- |
| O=C(COc1ccc(Cl)c(F)c1)NC12CC(Nc3ccnc4cc(Cl)ccc34)(C1)C2 [Compound 384, 2-(4-chloro-3-fluorophenoxy)-N-{3-[(7-chloroquinolin-4-yl)amino]bicyclo[1.1.1]pentan-1-yl}acetamide] | < 50 |
| O=C(COc1ccc(Cl)c(F)c1)NC12CCC(NC(=O)c3cccnc3)(C1)C2 [Compound 477, N-{4-[2-(4-chloro-3-fluorophenoxy)acetamido]bicyclo[2.1.1]hexan-1-yl}pyridine-3-carboxamide] | 1000 to 2000 |
| O=C(COc1ccc(Cl)c(F)c1)NC12CCC(Nc3cnc(C(F)(F)F)cn3)(CC1)CC2 [Compound 100, 2-(4-chloro-3-fluorophenoxy)-N-(4-{[5-(trifluoromethyl)pyrazin-2-yl]amino}bicyclo[2.2.2]octan-1-yl)acetamide] | 250 to 1000 |
| COCc1ccccc1C(=O)NC12CC(NC(=O)COc3ccc(Cl)c(F)c3)(C1)C2 [Compound 550, N-{3-[2-(4-chloro-3-fluorophenoxy)acetamido]bicyclo[1.1.1]pentan-1-yl}-2-(methoxymethyl)benzamide] | 1000 to 2000 |
| O=C(COc1ccc(Cl)c(Cl)c1)NC12CC(NC(=O)c3ccc(OC(F)(F)F)cn3)(C1)C2 [Compound 144, N-{3-[2-(3,4-dichlorophenoxy)acetamido]bicyclo[1.1.1]pentan-1-yl}-5-(trifluoromethoxy)pyridine-2-carboxamide] | < 50 |
| Cc1ccncc1C(=O)NC12CC(NC(=O)COc3ccc(Cl)c(F)c3)(C1)C2 [Compound 738, N-{3-[2-(4-chloro-3-fluorophenoxy)acetamido]bicyclo[1.1.1]pentan-1-yl}-4-methylpyridine-3-carboxamide] | > 2000 |
| Cc1ncc(C(=O)NC23CC(NC(=O)COc4ccc(Cl)c(F)c4)(C2)C3)o1 [Compound 257, N-{3-[2-(4-chloro-3-fluorophenoxy)acetamido]bicyclo[1.1.1]pentan-1-yl}-2-methyl-1,3-oxazole-5-carboxamide] | 50 to 250 |
| O=C(COc1ccc(Cl)c(F)c1)NC12CC(NC(=O)c3ccc(F)c(F)c3)(C1)C2 [Compound 514, N-{3-[2-(4-chloro-3-fluorophenoxy)acetamido]bicyclo[1.1.1]pentan-1-yl}-3,4-difluorobenzamide] | 50 to 250 |
| O=C(COc1ccc(Cl)c(F)c1)NC12CC(NC(=O)c3ccc4c(c3)OCCO4)(C1)C2 [Compound 387, N-{3-[2-(4-chloro-3-fluorophenoxy)acetamido]bicyclo[1.1.1]pentan-1-yl}-2,3-dihydro-1,4-benzodioxine-6-carboxamide] | 50 to 250 |
| COc1cc(C(=O)NC23CCC(NC(=O)COc4ccc(Cl)c(F)c4)(CC2)C(O)C3)on1 (stereo not drawn) [Compound 576, N-{4-[2-(4-chloro-3-fluorophenoxy)acetamido]-3-hydroxybicyclo[2.2.2]octan-1-yl}-3-methoxy-1,2-oxazole-5-carboxamide] | 50 to 250 |
| O=C(COc1ccc(Cl)c(F)c1)NC12CC(NC(=O)c3nc4ccccc4o3)(C1)C2 [Compound 347, N-{3-[2-(4-chloro-3-fluorophenoxy)acetamido]bicyclo[1.1.1]pentan-1-yl}-1,3-benzoxazole-2-carboxamide] | 250 to 1000 |
| CCc1cc(C(=O)NC23CC(NC(=O)COc4ccc(Cl)c(Cl)c4)(C2)C3)n(C)n1 [Compound 584, N-{3-[2-(3,4-dichlorophenoxy)acetamido]bicyclo[1.1.1]pentan-1-yl}-3-ethyl-1-methyl-1H-pyrazole-5-carboxamide] | < 50 |
| O=C(COc1ccc(Cl)c(F)c1)NC12CCC(NC(=O)c3cc(-n4ccnc4)ccn3)(CC1)CC2O (stereo not drawn) [Compound 934, N-{4-[2-(4-chloro-3-fluorophenoxy)acetamido]-3-hydroxybicyclo[2.2.2]octan-1-yl}-4-(1H-imidazol-1-yl)pyridine-2-carboxamide] | 1000 to 2000 |
| O=C(COc1ccc(Cl)c(F)c1)NC12CC(NC(=O)c3ccccn3)(C1)C2 [Compound 129, N-{3-[2-(4-chloro-3-fluorophenoxy)acetamido]bicyclo[1.1.1]pentan-1-yl}pyridine-2-carboxamide] | 50 to 250 |
| O=C(COc1ccc(C(F)(F)F)nc1)NC12CC(Nc3ccnc4cc(Cl)ccc34)(C1)C2 [Compound 385, N-{3-[(7-chloroquinolin-4-yl)amino]bicyclo[1.1.1]pentan-1-yl}-2-{[6-(trifluoromethyl)pyridin-3-yl]oxy}acetamide] | 250 to 1000 |
| O=C(COc1ccc(Cl)c(F)c1)NC12CCC(NC(=O)c3cc(O)no3)(CC1)CC2O (stereo not drawn) [Compound 411, N-{4-[2-(4-chloro-3-fluorophenoxy)acetamido]-3-hydroxybicyclo[2.2.2]octan-1-yl}-3-hydroxy-1,2-oxazole-5-carboxamide] | > 2000 |
| O=C(COc1ccc(Cl)c(F)c1)NC12CC(NC(=O)c3cnc4ccccc4c3)(C1)C2 [Compound 587, N-{3-[2-(4-chloro-3-fluorophenoxy)acetamido]bicyclo[1.1.1]pentan-1-yl}quinoline-3-carboxamide] | 50 to 250 |

| Compound | EC50 [nM] |
| --- | --- |
| O=C(COc1ccc(Cl)c(F)c1)NC12CC(NC(=O)c3cc(C(=O)NC4CC(F)(F)C4)ccn3)(C1)C2 [Compound 263, N^2-{3-[2-(4-chloro-3-fluorophenoxy)acetamido]bicyclo[1.1.1]pentan-1-yl}-N^4-(3,3-difluorocyclobutyl)pyridine-2,4-dicarboxamide] | 250 to 1000 |
| O=C(COc1ccc(Cl)c(F)c1)NC12CC(NC(=O)c3cncc(CO)c3)(C1)C2 [Compound 453, N-{3-[2-(4-chloro-3-fluorophenoxy)acetamido]bicyclo[1.1.1]pentan-1-yl}-5-(hydroxymethyl)pyridine-3-carboxamide] | 1000 to 2000 |
| O=C(COc1ccc(Cl)c(Cl)c1)NC12CC(NC(=O)c3cc(CCO)ccn3)(C1)C2 [Compound 281, N-{3-[2-(3,4-dichlorophenoxy)acetamido]bicyclo[1.1.1]pentan-1-yl}-4-(2-hydroxyethyl)pyridine-2-carboxamide] | 50 to 250 |
| Cc1nn(C)cc1-c1cc(C(=O)NC23CC(NC(=O)COc4ccc(Cl)c(F)c4)(C2)C3)no1 [Compound 865, N-{3-[2-(4-chloro-3-fluorophenoxy)acetamido]bicyclo[1.1.1]pentan-1-yl}-5-(1,3-dimethyl-1H-pyrazol-4-yl)-1,2-oxazole-3-carboxamide] | 1000 to 2000 |
| Cn1cc(-c2cc(C(=O)NC34CCC(NC(=O)COc5ccc(Cl)c(F)c5)(CC3)C(O)C4)on2)cn1 (stereo not drawn) [Compound 633, N-{4-[2-(4-chloro-3-fluorophenoxy)acetamido]-3-hydroxybicyclo[2.2.2]octan-1-yl}-3-(1-methyl-1H-pyrazol-4-yl)-1,2-oxazole-5-carboxamide] | 50 to 250 |
| CC(C)Cc1cc(C(=O)NC23CC(NC(=O)COc4ccc(Cl)c(F)c4)(C2)C3)on1 [Compound 348, N-{3-[2-(4-chloro-3-fluorophenoxy)acetamido]bicyclo[1.1.1]pentan-1-yl}-3-(2-methylpropyl)-1,2-oxazole-5-carboxamide] | 50 to 250 |
| O=C(COc1ccc(Cl)c(F)c1)NC12CCC(NC(=O)c3cnc(C(F)F)cn3)(CC1)CC2O (stereo not drawn) [Compound 229, N-{4-[2-(4-chloro-3-fluorophenoxy)acetamido]-3-hydroxybicyclo[2.2.2]octan-1-yl}-5-(difluoromethyl)pyrazine-2-carboxamide] | 50 to 250 |
| Cc1cc2c(NC34CC(NC(=O)COc5cc(F)c(F)c(F)c5)(C3)C4)nccn2n1 [Compound 495, N-{3-[(2-methylpyrazolo[1,5-a]pyrazin-4-yl)amino]bicyclo[1.1.1]pentan-1-yl}-2-(3,4,5-trifluorophenoxy)acetamide] | 250 to 1000 |
| Cn1c(=O)n(C)c2cc(C(=O)NC34CC(NC(=O)COc5ccc(Cl)c(F)c5)(C3)C4)ccc21 [Compound 776, N-{3-[2-(4-chloro-3-fluorophenoxy)acetamido]bicyclo[1.1.1]pentan-1-yl}-1,3-dimethyl-2-oxo-2,3-dihydro-1H-benzimidazole-5-carboxamide] | > 2000 |
| Cc1cccnc1C(=O)NC12CC(NC(=O)COc3ccc(Cl)c(Cl)c3)(C1)C2 [Compound 739, N-{3-[2-(3,4-dichlorophenoxy)acetamido]bicyclo[1.1.1]pentan-1-yl}-3-methylpyridine-2-carboxamide] | > 2000 |
| Cc1cc(C(=O)NC23CC(NC(=O)COc4ccc(Cl)c(F)c4)(C2)C3)cnc1C [Compound 856, N-{3-[2-(4-chloro-3-fluorophenoxy)acetamido]bicyclo[1.1.1]pentan-1-yl}-5,6-dimethylpyridine-3-carboxamide] | 250 to 1000 |
| O=C(COc1ccc(Cl)c(F)c1)NC12CC(NC(=O)c3cocn3)(C1)C2 [Compound 852, N-{3-[2-(4-chloro-3-fluorophenoxy)acetamido]bicyclo[1.1.1]pentan-1-yl}-1,3-oxazole-4-carboxamide] | 1000 to 2000 |
| O=C(COc1ccc2c(c1)OC(F)(F)O2)NC12CC(NC(=O)c3cc(CO)ccn3)(C1)C2 [Compound 401, N-(3-{2-[(2,2-difluoro-2H-1,3-benzodioxol-5-yl)oxy]acetamido}bicyclo[1.1.1]pentan-1-yl)-4-(hydroxymethyl)pyridine-2-carboxamide] | 250 to 1000 |
| COc1cc(C(=O)NC23CC(NC(=O)COc4ccc(Cl)c(F)c4)(C2)C3)n(C)n1 [Compound 651, N-{3-[2-(4-chloro-3-fluorophenoxy)acetamido]bicyclo[1.1.1]pentan-1-yl}-3-methoxy-1-methyl-1H-pyrazole-5-carboxamide] | 50 to 250 |
| Cc1ncc(C(=O)NC23CC(NC(=O)COc4ccc(Cl)c(F)c4)(C2)C3)cn1 [Compound 121, N-{3-[2-(4-chloro-3-fluorophenoxy)acetamido]bicyclo[1.1.1]pentan-1-yl}-2-methylpyrimidine-5-carboxamide] | 1000 to 2000 |
| O=C(COc1ccc(Cl)c(F)c1)NC12CCC(NC(=O)c3ccc4c(c3)OCO4)(CC1)C(O)C2 (stereo not drawn) [Compound 211, N-{4-[2-(4-chloro-3-fluorophenoxy)acetamido]-2-hydroxybicyclo[2.2.2]octan-1-yl}-2H-1,3-benzodioxole-5-carboxamide] | 1000 to 2000 |
